In paper PMC10882719 (Frontiers in Neuroscience, 2024):
Where two headings read alike, the source gives them in different places.

Assays:
Type in all cases: cell-based
168 GPCRs [1] = biological target: T1, 168 GPCRs (Homo sapiens, UniProt P21730)
T1 construct: host or cells: PathHunter cell lines
T1 sequence (P21730 1-350): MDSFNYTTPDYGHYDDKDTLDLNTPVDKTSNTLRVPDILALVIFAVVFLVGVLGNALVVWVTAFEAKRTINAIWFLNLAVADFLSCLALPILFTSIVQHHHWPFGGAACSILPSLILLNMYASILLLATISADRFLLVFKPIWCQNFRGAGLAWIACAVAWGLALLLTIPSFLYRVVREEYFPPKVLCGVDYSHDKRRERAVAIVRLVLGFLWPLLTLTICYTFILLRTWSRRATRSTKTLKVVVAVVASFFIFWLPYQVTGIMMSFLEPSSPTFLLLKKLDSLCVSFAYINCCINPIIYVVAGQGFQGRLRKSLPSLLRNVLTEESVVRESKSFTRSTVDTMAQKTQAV

168 GPCRs [2] = biological target: T2, 168 GPCRs (Homo sapiens, UniProt P25021)
T2 construct: host or cells: PathHunter cell lines

168 GPCRs [3] = biological target: T3, 168 GPCRs (Homo sapiens, UniProt P28222); conditions: HTR1B
T3 construct: host or cells: PathHunter cell lines

168 GPCRs [4] = biological target: T4, 168 GPCRs (Homo sapiens, UniProt P32239); conditions: CCKBR
T4 construct: host or cells: PathHunter cell lines
T4 sequence (P32239 1-447): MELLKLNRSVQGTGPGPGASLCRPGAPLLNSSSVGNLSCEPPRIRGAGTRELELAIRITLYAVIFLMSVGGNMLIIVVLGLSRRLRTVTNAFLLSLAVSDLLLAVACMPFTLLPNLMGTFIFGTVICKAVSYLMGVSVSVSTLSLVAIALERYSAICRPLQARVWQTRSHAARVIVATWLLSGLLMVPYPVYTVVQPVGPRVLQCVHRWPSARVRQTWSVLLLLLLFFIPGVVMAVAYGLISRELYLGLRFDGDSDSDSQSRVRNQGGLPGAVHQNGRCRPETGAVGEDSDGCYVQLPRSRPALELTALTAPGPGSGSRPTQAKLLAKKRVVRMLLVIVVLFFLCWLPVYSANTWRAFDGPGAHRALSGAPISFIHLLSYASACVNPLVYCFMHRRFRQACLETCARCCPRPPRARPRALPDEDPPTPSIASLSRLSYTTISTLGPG

168 GPCRs [5] = biological target: T5, 168 GPCRs (Homo sapiens, UniProt P35367)
T5 construct: host or cells: PathHunter cell lines

168 GPCRs [6] = biological target: T6, 168 GPCRs (Homo sapiens, UniProt P46092)
T6 construct: host or cells: PathHunter cell lines
T6 sequence (P46092 1-362): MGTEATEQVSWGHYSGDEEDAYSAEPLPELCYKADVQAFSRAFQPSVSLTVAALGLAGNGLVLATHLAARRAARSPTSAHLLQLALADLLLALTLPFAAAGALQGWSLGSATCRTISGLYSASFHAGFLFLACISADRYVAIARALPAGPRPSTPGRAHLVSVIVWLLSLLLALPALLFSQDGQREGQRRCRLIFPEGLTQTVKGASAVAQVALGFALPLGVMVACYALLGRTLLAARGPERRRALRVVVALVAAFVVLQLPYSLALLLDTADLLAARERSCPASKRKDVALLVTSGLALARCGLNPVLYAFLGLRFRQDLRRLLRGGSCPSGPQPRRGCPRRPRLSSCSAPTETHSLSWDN

168 GPCRs [7] = biological target: T7, 168 GPCRs (Homo sapiens, UniProt P51685)
T7 construct: host or cells: PathHunter cell lines

168 GPCRs [8] = biological target: T8, 168 GPCRs (Homo sapiens, UniProt Q99500)
T8 construct: host or cells: PathHunter cell lines

168 GPCRs [9] = biological target: T9, 168 GPCRs (Homo sapiens, UniProt Q9H1C0)
T9 construct: host or cells: PathHunter cell lines

168 GPCRs [10] = biological target: T10, 168 GPCRs (Homo sapiens, UniProt Q9P296)
T10 construct: host or cells: PathHunter cell lines
T10 sequence (Q9P296 whole entry): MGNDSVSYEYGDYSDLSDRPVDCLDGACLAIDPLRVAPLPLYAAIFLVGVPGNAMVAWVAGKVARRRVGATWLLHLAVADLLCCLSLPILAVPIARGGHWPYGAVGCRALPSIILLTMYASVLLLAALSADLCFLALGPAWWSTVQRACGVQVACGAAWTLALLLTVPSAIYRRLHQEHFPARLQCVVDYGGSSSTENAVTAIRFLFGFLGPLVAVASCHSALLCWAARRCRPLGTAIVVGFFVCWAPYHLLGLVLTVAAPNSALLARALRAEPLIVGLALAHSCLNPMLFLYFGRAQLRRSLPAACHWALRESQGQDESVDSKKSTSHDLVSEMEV

T5 sequence (P35367 whole entry): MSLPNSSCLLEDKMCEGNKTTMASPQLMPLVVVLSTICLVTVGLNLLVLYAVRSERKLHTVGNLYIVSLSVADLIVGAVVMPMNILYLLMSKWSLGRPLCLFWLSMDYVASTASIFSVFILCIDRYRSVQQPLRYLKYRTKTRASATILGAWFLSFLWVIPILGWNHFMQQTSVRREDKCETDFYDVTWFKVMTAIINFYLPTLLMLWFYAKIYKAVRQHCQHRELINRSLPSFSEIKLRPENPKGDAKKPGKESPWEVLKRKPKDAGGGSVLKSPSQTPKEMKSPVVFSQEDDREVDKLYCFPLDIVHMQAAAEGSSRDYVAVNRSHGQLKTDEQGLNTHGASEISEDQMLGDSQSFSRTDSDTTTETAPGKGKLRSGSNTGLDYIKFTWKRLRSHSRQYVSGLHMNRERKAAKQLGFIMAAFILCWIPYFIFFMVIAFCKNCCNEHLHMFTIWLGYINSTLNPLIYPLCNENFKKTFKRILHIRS
T8 sequence (Q99500 whole entry): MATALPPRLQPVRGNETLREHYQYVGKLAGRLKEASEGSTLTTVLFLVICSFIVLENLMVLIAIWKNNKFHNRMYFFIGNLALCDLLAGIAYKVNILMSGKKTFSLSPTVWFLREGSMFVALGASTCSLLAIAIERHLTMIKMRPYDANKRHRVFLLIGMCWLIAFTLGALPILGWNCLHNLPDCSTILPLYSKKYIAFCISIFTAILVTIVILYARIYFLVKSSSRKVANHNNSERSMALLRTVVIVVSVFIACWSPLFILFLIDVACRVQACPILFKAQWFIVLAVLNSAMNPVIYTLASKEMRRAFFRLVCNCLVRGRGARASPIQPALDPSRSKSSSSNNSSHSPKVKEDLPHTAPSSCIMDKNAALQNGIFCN
T3 sequence (P28222 whole entry): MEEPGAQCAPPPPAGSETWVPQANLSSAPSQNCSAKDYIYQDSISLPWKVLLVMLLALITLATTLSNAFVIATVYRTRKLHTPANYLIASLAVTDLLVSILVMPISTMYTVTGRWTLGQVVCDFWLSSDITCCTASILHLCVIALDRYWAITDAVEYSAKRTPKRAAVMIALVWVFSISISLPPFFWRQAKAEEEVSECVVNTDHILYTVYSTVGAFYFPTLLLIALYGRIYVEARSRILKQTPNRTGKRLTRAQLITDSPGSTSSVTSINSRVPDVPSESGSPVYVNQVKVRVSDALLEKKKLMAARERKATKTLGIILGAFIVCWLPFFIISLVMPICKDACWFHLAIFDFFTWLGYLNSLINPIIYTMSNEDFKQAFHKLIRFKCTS
T2 sequence (P25021 whole entry): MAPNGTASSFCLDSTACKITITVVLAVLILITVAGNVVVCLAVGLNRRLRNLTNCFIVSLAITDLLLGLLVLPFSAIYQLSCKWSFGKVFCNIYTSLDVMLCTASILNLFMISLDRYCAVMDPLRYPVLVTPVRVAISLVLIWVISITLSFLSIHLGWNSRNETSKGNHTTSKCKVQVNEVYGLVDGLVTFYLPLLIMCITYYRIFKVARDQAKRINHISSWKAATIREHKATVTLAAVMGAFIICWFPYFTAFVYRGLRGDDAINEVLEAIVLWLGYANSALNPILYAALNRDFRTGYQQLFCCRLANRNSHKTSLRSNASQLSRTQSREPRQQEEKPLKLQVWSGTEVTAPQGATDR
T9 sequence (Q9H1C0 whole entry): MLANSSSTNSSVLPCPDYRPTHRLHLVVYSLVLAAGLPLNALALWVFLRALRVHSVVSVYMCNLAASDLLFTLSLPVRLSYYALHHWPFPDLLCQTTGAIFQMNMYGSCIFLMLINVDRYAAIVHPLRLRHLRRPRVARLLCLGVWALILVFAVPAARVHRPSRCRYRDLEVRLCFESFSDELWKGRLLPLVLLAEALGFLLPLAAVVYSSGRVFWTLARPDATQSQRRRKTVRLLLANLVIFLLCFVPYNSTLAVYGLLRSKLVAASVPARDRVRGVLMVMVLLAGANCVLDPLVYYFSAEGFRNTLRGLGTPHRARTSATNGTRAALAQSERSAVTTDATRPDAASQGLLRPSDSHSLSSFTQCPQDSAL
T7 sequence (P51685 whole entry): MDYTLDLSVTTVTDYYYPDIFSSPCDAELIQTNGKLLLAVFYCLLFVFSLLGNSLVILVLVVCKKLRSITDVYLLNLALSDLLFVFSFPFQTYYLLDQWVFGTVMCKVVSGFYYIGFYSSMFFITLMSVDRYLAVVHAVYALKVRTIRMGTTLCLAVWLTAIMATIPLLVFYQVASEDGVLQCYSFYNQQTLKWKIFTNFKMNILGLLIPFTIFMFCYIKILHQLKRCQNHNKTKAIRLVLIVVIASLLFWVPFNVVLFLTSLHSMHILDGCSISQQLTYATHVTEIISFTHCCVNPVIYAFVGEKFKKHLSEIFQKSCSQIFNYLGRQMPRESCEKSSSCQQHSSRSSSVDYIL

SMILES	% Agonist Activity (168 GPCRs [1]; C5aR1, 1 uM) [%]	% Antagonist Activity (168 GPCRs [1]; C5aR1, 1 uM) [%]	% Agonist Activity (168 GPCRs [1]; C5aR1, 10 uM) [%]	% Antagonist Activity (168 GPCRs [1]; C5aR1, 10 uM) [%]	% Agonist Activity (168 GPCRs [2]; HRH2, 1 uM) [%]	% Antagonist Activity (168 GPCRs [2]; HRH2, 1 uM) [%]	% Agonist Activity (168 GPCRs [2]; HRH2, 10 uM) [%]	% Antagonist Activity (168 GPCRs [2]; HRH2, 10 uM) [%]	% Agonist Activity (168 GPCRs [3]; 1 uM) [%]	% Antagonist Activity (168 GPCRs [3]; 1 uM) [%]	% Agonist Activity (168 GPCRs [3]; 10 uM) [%]	% Antagonist Activity (168 GPCRs [3]; 10 uM) [%]	% Agonist Activity (168 GPCRs [4]; 1 uM) [%]	% Antagonist Activity (168 GPCRs [4]; 1 uM) [%]	% Agonist Activity (168 GPCRs [4]; 10 uM) [%]	% Antagonist Activity (168 GPCRs [4]; 10 uM) [%]	% Agonist Activity (168 GPCRs [5]; HRH1, 1 uM) [%]	% Antagonist Activity (168 GPCRs [5]; HRH1, 1 uM) [%]	% Agonist Activity (168 GPCRs [5]; HRH1, 10 uM) [%]	% Antagonist Activity (168 GPCRs [5]; HRH1, 10 uM) [%]	other results
CNC(C)C(=O)c1ccc2c(c1)OCO2 (centres unmarked) [methylone]	-1	8.9	-1.3	5	-2.5	7.1	-2.8	8.1	3.3	-9.5	6.7	-6.2	-1	-1.1	1.5	-2.4	3	-18	2.5	-2.2	% Agonist Activity (168 GPCRs [6]; CCR10, 1 uM): -2%; % Antagonist Activity (168 GPCRs [6]; CCR10, 1 uM): 5.4%; % Agonist Activity (168 GPCRs [6]; CCR10, 10 uM): -1.8%; % Antagonist Activity (168 GPCRs [6]; CCR10, 10 uM): 2.6%; % Agonist Activity (168 GPCRs [7]; CCR8, 1 uM): -0.2%; % Antagonist Activity (168 GPCRs [7]; CCR8, 1 uM): 4.7%; % Agonist Activity (168 GPCRs [7]; CCR8, 10 uM): -0.6%; % Antagonist Activity (168 GPCRs [7]; CCR8, 10 uM): -0.3%; % Agonist Activity (168 GPCRs [8]; EDG3, 1 uM): -9.4%; % Antagonist Activity (168 GPCRs [8]; EDG3, 1 uM): 25.8%; % Agonist Activity (168 GPCRs [8]; EDG3, 10 uM): -8.6%; % Antagonist Activity (168 GPCRs [8]; EDG3, 10 uM): 13.6%; % Agonist Activity (168 GPCRs [9]; GPR92, 1 uM): -1.6%; % Antagonist Activity (168 GPCRs [9]; GPR92, 1 uM): -8%; % Agonist Activity (168 GPCRs [9]; GPR92, 10 uM): -3.5%; % Antagonist Activity (168 GPCRs [9]; GPR92, 10 uM): 5.8%; % Agonist Activity (168 GPCRs [10]; C5L2, 1 uM): 8.4%; % Antagonist Activity (168 GPCRs [10]; C5L2, 1 uM): 10%; % Agonist Activity (168 GPCRs [10]; C5L2, 10 uM): 12.9%; % Antagonist Activity (168 GPCRs [10]; C5L2, 10 uM): 1.4%
CNC(C)Cc1ccc2c(c1)OCO2 (centres unmarked) [MDMA, 3,4-Methylenedioxy methamphetamine, reference compound]	-1.1	-5.5	-1.1	-4.3	3.3	8.4	-3.7	15.3	8.5	-7.3	10.4	-0.1	2.3	3.2	1.2	5.2	3.1	13.7	3.8	38.4	% Agonist Activity (168 GPCRs [6]; CCR10, 1 uM): -1.1%; % Antagonist Activity (168 GPCRs [6]; CCR10, 1 uM): 8.9%; % Agonist Activity (168 GPCRs [6]; CCR10, 10 uM): -0.7%; % Antagonist Activity (168 GPCRs [6]; CCR10, 10 uM): 12.1%; % Agonist Activity (168 GPCRs [7]; CCR8, 1 uM): -0.2%; % Antagonist Activity (168 GPCRs [7]; CCR8, 1 uM): -3.1%; % Agonist Activity (168 GPCRs [7]; CCR8, 10 uM): -0.2%; % Antagonist Activity (168 GPCRs [7]; CCR8, 10 uM): 4.3%; % Agonist Activity (168 GPCRs [8]; EDG3, 1 uM): -1.7%; % Antagonist Activity (168 GPCRs [8]; EDG3, 1 uM): 8.8%; % Agonist Activity (168 GPCRs [8]; EDG3, 10 uM): -1.1%; % Antagonist Activity (168 GPCRs [8]; EDG3, 10 uM): 11%; % Agonist Activity (168 GPCRs [9]; GPR92, 1 uM): -4%; % Antagonist Activity (168 GPCRs [9]; GPR92, 1 uM): 6.8%; % Agonist Activity (168 GPCRs [9]; GPR92, 10 uM): -2.2%; % Antagonist Activity (168 GPCRs [9]; GPR92, 10 uM): 8%; % Agonist Activity (168 GPCRs [10]; C5L2, 1 uM): 7.7%; % Antagonist Activity (168 GPCRs [10]; C5L2, 1 uM): -5.5%; % Agonist Activity (168 GPCRs [10]; C5L2, 10 uM): 3.3%; % Antagonist Activity (168 GPCRs [10]; C5L2, 10 uM): -4%
